The target in series [1] is T1, PKMYT1 (Homo sapiens, UniProt Q99640).
T1 sequence (Q99640 1-499): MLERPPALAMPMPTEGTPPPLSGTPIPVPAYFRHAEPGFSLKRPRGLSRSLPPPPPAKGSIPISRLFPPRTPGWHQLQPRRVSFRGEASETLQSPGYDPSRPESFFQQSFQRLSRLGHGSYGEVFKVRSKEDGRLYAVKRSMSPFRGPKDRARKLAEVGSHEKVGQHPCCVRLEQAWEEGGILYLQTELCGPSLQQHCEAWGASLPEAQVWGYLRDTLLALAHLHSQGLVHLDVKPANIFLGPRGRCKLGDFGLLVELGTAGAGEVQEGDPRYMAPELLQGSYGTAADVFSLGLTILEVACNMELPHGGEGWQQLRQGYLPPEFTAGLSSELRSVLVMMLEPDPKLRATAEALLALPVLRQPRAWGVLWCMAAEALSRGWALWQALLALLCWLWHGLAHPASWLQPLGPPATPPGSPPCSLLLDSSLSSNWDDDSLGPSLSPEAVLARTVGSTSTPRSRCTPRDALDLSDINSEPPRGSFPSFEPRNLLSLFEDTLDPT

A short description of series [2]: in vitro. To be noted: human, Caco-2.
The nature of series [3]: CD-1 mouse pharmacokinetic study. To be noted: female, in vivo, iv, 1 mg/kg.
Series [4] can be described thus: in vivo. To be noted: male, Sprague-Dawley, rat, iv, 1 mg/kg.
A short description of series [5]: in vivo. To be noted: male, beagle, dog, plasma, iv, 0.5 mg/kg.
Series [6] is described as follows: in vivo. To be noted: male, cynomolgus monkey, plasma, iv, 0.5 mg/kg.
Series [7] is described as follows: in vitro. To be noted: human, hepatocytes.
Series [8] concerns OVCAR3 CCNE1 amplified xenograft. To be noted: PO twice daily (BID), OVCAR3 model ref 6; cited from earlier work.
Series [9] concerns the target T1, PKMYT1. Briefly: Fluorescence polarization competitive displacement screen with Tracer 178. To be noted: Tracer 178 binding probe. Background: Polarisation of emitted light reports the rotation of a fluorescent probe.

Here are results for twelve compounds from article PMC9837800 (Journal of medicinal chemistry, 2022).

In the case of `Cc1ccccc1-n1c(N)c(C(N)=O)c2nc3ccccc3nc21` [Compound 2, reference compound], the “PKMYT1 inhibition in biochemical ADP release enzymatic assay (in words)” value on PKMYT1 [1] was “inactive”.
The same measure, in the same setting: to `Cc1cc(O)ccc1-n1c(N)c(C(N)=O)c2nc3ccccc3nc21` [Compound 3, 2-amino-1-(4-hydroxy-2-methyl-phenyl)pyrrolo[3,2-b]quinoxaline-3-carboxamide] belongs “inactive”.
The same measure, in the same setting: the entry for `Cc1ccc(N)cc1-n1c(N)c(C(N)=O)c2nc3ccccc3nc21` [Compound 9, 2-amino-1-(5-amino-2-methyl-phenyl)pyrrolo[3,2-b]quinoxaline-3-carboxamide] is “inactive”; for `NC(=O)c1c(N)n(-c2cccc3[nH]ccc23)c2nc3ccccc3nc12` [Compound 11, 2-amino-1-(1H-indol-4-yl)pyrrolo[3,2-b]quinoxaline-3-carboxamide] it is “inactive”.
The same measure, in the same setting: to `NC(=O)c1c(N)n(-c2cccc3[nH]nnc23)c2nc3ccccc3nc12` [Compound 12, 2-amino-1-(1H-benzotriazol-4-yl)pyrrolo[3,2-b]quinoxaline-3-carboxamide] belongs “inactive”.
Turning to `NC(=O)c1c(N)n(-c2cccc3[nH]cnc23)c2nc3ccccc3nc12` [Compound 13, 2-amino-1-(1H-benzimidazol-4-yl)pyrrolo[3,2-b]quinoxaline-3-carboxamide], on PKMYT1 [1], the “PKMYT1 inhibition in biochemical ADP release enzymatic assay (in words)” value is “inactive”.
Still for that read-out and setting: to `Cc1ccc(C(F)F)cc1-n1c(N)c(C(N)=O)c2nc3ccccc3nc21` [Compound 14, 2-amino-1-[5-(difluoromethyl)-2-methyl-phenyl]pyrrolo[3,2-b]quinoxaline-3-carboxamide] belongs “inactive”.
Regarding `Cc1c(O)ccc(Cl)c1-n1c(N)c(C(N)=O)c2nc3ccccc3nc21` [Compound 17, 2-amino-1-(6-chloro-3-hydroxy-2-methyl-phenyl)pyrrolo[3,2-b]quinoxaline-3-carboxamide], the Papp A→B (commonly how fast a substance crosses the layer from the apical side) in the series “in vitro [2]” was 141 nm/s.
On the same count and under the same terms, the figure for `NC(=O)c1c(N)n(-c2c(Cl)ccc(O)c2Cl)c2nc3ccccc3nc12` [Compound 18, 2-amino-1-(2,6-dichloro-3-hydroxy-phenyl)pyrrolo[3,2-b]quinoxaline-3-carboxamide] is 188 nm/s.
In the case of `Cc1ccc(O)c(C)c1-n1c(N)c(C(N)=O)c2cc(Cl)cnc21` [Compound 55, (S)-2-amino-5-chloro-1-(3-hydroxy-2,6-dimethyl-phenyl)pyrrolo[2,3-b]pyridine-3-carboxamide], the clearance (commonly the volume of plasma or blood freed of the substance per unit of time) at 24 h in [3] stood at 3.55 L/h/kg; in “in vivo [4]” it was 1.54 L/h/kg; in “in vivo [5]”, 1.28 L/h/kg; in “in vivo [6]” it was 1.16 L/h/kg. In addition, in the series “in vitro [7]”, the hepatocyte CLint (as a rule, a measure of how fast metabolising enzymes remove a compound, apart from limits set by blood flow) was 4.5 µL/min/1e6 cells.
With `Cc1cc2c(C(N)=O)c(N)n(-c3c(C)ccc(O)c3C)c2nc1C` [RP-6306, (S)-2-amino-1-(3-hydroxy-2,6-dimethyl-phenyl)-5,6-dimethyl-pyrrolo[2,3-b]pyridine-3-carboxamide], the clearance at 24 h in [3] was 1.82 L/h/kg; in the series “in vivo [5]” it was 0.786 L/h/kg. For the same compound, the maximum tolerated dose in series [8] is reported as 20 mg/kg.
With `Cc1nc(Nc2ncc(C(=O)Nc3c(C)cccc3Cl)s2)cc(N2CCN(CCO)CC2)n1` [dasatinib], the “result in focused screen of 560 known kinase inhibitors” value on PKMYT1 [9] is reported as “potent hits”.
